Patent EP4631959A2, “NOVEL MINIGASTRIN-DERIVED CHOLECYSTOKININ 2 RECEPTOR BINDING MOLECULES FOR IMAGING AND TARGETED RADIOTHERAPY” (priority 2022, dated 2024)
Where two headings read alike, the source gives them in different places. Starred links: 1 amine or outer side, 2 acyl side, 3 side chain; linkers in the order of their positions; H or OH if unused. Non-standard residues stand in square brackets, D forms with d. Residues, ends and D or L forms follow the SMILES beside them. *: point of attachment. DOTAGA = O=C(O)CN1CCN(CC(=O)O)CCN(C(CCC(=O)*)C(=O)O)CCN(CC(=O)O)CC1; X2 = O=C(O)CN1CCN(CC(=O)O)CCN([C@H](CCC(=O)*)C(=O)O)CCN(CC(=O)O)CC1; Benzoyl(4-SiFtBu2) = CC(C)(C)[Si](F)(c1ccc(C(=O)*)cc1)C(C)(C)C; DOTA = O=C(O)CN1CCN(CC(=O)O)CCN(CC(=O)*)CCN(CC(=O)O)CC1; d(γGlu) = O=C(O)[C@@H](CCC(=O)[*:2])N[*:1]; 1Nal = N[C@@H](Cc1cccc2ccccc12)C(=O)O; NMeNle = CCCC[C@H](NC)C(=O)O; Nle = CCCC[C@H](N)C(=O)O; dDap = NC[C@@H](N)C(=O)O

Legend:
[1] = target: T1, CCK-2R (Rattus norvegicus, UniProt P30553); assay: Determination of IC50: CCK-2R affinity on AR4-2J cells, competition with [^177Lu]Lu-DOTA-PP-F11N; assay type: binding
T1 construct: The CCK-2R expressing rat pancreatic tumor cells AR4-2J; host or cells: AR4-2J rat pancreatic tumor cells
T1 sequence (P30553 1-452): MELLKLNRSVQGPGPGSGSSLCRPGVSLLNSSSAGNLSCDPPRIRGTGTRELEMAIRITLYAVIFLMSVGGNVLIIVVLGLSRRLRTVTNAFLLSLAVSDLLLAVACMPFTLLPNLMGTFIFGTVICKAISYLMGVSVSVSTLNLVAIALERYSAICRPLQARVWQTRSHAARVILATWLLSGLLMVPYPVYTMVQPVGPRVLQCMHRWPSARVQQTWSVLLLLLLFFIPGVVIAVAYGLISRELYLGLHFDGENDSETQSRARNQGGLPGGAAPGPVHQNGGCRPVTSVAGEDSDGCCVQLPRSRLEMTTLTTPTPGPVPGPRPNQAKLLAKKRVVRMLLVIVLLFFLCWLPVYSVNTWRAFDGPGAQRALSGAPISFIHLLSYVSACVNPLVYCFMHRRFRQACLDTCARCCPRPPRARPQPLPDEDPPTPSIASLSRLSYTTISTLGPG
Procedure: AR4-2J cells were harvested 24 ± 2 h before the experiment and seeded in 24-well plates (2.0 × 10^5 cells in 1 mL/well). After removal of the nutrient medium (RPMI 1640, 5 mM L-Gln, 5 mL non-essential amino acids (100×), 10% FCS), the cells were washed once with 500 µL PBS. Thereafter, 200 µL nutrient medium (5% BSA, v/v) were added. Next, 25 µL per well of solutions containing either nutrient medium (5% BSA, v/v) as control or the respective compound in increasing concentration (10^-10 - 10^-4 M), were added with subsequent addition of 25 µL [^177Lu]Lu-DOTA-PP-F11N (0.3 pmol/well).
All experiments were performed in triplicate for each concentration. After 3 h incubation at 37 °C, the experiment was terminated by removal of the medium and consecutive rinsing with 300 µL PBS. The media of both steps were combined in one fraction and represent the amount of free radiolabeled reference. Afterwards, the cells were lysed with 300 µL of 1 M NaOH for at least 15 min and united with the 300 µL NaOH of the following washing step. Quantification of bound and free radiolabeled reference was accomplished in a γ-counter. IC50 determination for each conjugate was repeated twice.

[2] = n-Octanol-PBS distribution coefficient (logD7.4); assay type: physicochemical; conditions: pH = 7.4, ^177Lu-labeled
Procedure: Approximately 1 MBq of the labeled tracer was dissolved in 1 mL of a 1/1 mixture (v/v) of phosphate buffered saline (PBS, pH = 7.4) and n-octanol in an Eppendorf tube (1.5 mL). After vigorous mixing of the suspension for 3 min at rt, the vial was centrifuged at 9,000 rpm for 5 min (Biofuge 15, Heraeus Sepatech, Osterode, Germany) and 200 µL aliquots of both layers were measured in a γ-counter. The experiment was repeated at least five times.

[3] = AR4-2J cells; ^natLu-labeled; read-out: IC50 [nM] (n = 3), ^natLu-labeled
[4] = read-out: IC50 [nM] (n = 3), ^natLu-labeled; AR4-2J cells; ^natLu-labeled

| Compound | IC50 [1, 3] [nM] | logD7.4 (n ≥ 5), ^177Lu-labeled [2] | IC50 [1, 4] [nM] |
| --- | --- | --- | --- |
| CCCC[C@H](NC(=O)[C@H](Cc1c[nH]c2ccccc12)NC(=O)CNC(=O)[C@H](Cc1ccc(O)cc1)NC(=O)[C@H](C)NC(=O)CC[C@@H](NC(=O)CC[C@@H](NC(=O)CC[C@@H](NC(=O)CC[C@@H](NC(=O)CC[C@@H](NC(=O)CC[C@@H](NC(=O)[C@@H](CNC(=O)c1ccc([Si](F)(C(C)(C)C)C(C)(C)C)cc1)NC(=O)CN1CCN(CC(=O)O)CCN(CC(=O)O)CCN(CC(=O)O)CC1)C(=O)O)C(=O)O)C(=O)O)C(=O)O)C(=O)O)C(=O)O)C(=O)N[C@@H](CC(=O)O)C(=O)N[C@@H](Cc1ccccc1)C(N)=O [DOTA-MG-SiFA-19] | 7.54 ± 0.26 | −2.70 ± 0.09 | – |
| CCCC[C@H](NC(=O)[C@H](Cc1c[nH]c2ccccc12)NC(=O)CNC(=O)[C@H](Cc1ccc(O)cc1)NC(=O)[C@H](C)NC(=O)[C@@H](CCC(=O)O)NC(=O)[C@@H](CCC(=O)O)NC(=O)[C@@H](CCC(=O)O)NC(=O)[C@@H](CNC(=O)c1ccc([Si](F)(C(C)(C)C)C(C)(C)C)cc1)NC(=O)[C@@H](CCC(=O)O)NC(=O)[C@@H](CCC(=O)O)NC(=O)[C@@H](CCC(=O)O)NC(=O)CCC(C(=O)O)N1CCN(CC(=O)O)CCN(CC(=O)O)CCN(CC(=O)O)CC1)C(=O)N[C@@H](CC(=O)O)C(=O)N[C@@H](Cc1ccccc1)C(N)=O (some centres unmarked) [DOTAGA-MG-SiFA-8, DOTAGA-glu-[dap(SiFA)^3]F11N] ({DOTAGA}-[dE][dE][dE][dDap](Benzoyl(4-SiFtBu2))[dE][dE][dE]AYGW[Nle]DF-NH2) | – | −2.19 ± 0.08 | 185 ± 14 |
| CCCC[C@H](NC(=O)[C@H](Cc1c[nH]c2ccccc12)NC(=O)CNC(=O)[C@H](Cc1ccc(O)cc1)NC(=O)[C@H](C)NC(=O)[C@@H](CCC(=O)O)NC(=O)[C@@H](CCC(=O)O)NC(=O)[C@@H](CCC(=O)O)NC(=O)[C@@H](CCC(=O)O)NC(=O)[C@@H](CCC(=O)O)NC(=O)[C@@H](CCC(=O)O)NC(=O)[C@@H](CCC(=O)O)NC(=O)[C@@H](CNC(=O)c1ccc([Si](F)(C(C)(C)C)C(C)(C)C)cc1)NC(=O)CCC(C(=O)O)N1CCN(CC(=O)O)CCN(CC(=O)O)CCN(CC(=O)O)CC1)C(=O)N[C@@H](CC(=O)O)C(=O)N[C@@H](Cc1ccccc1)C(N)=O (some centres unmarked) [DOTAGA-MG-SiFA-20, DOTAGA-dap(SiFA)-glu-F11N] ({DOTAGA}-[dDap](Benzoyl(4-SiFtBu2))[dE][dE][dE][dE][dE][dE][dE]AYGW[Nle]DF-NH2) | – | −2.19 ± 0.08 | 58 ± 11 |
| CCCC[C@@H](C(=O)N[C@@H](CC(=O)O)C(=O)N[C@@H](Cc1cccc2ccccc12)C(N)=O)N(C)C(=O)[C@H](Cc1c[nH]c2ccccc12)NC(=O)CNC(=O)[C@H](Cc1ccc(O)cc1)NC(=O)CNC(=O)CNC(=O)CN1CCN(CC(=O)O)CCN(CC(=O)O)CCN(CC(=O)O)CC1 [DOTA-CCK-56, DOTA-(Gly)2-Tyr-Gly-Trp-(N-Me)NIe-Asp-1-Nal-NH2] ({DOTA}-GGYGW[NMeNle]D[1Nal]-NH2) | 4.9 ± 0.8 | −1.38 ± 0.07 | – |
| CCCC[C@H](NC(=O)[C@H](Cc1c[nH]c2ccccc12)NC(=O)CNC(=O)[C@H](Cc1ccc(O)cc1)NC(=O)[C@H](C)NC(=O)[C@@H](CCC(=O)O)NC(=O)[C@@H](CCC(=O)O)NC(=O)[C@@H](CCC(=O)O)NC(=O)[C@@H](CCC(=O)O)NC(=O)[C@@H](CCC(=O)O)NC(=O)[C@@H](CCC(=O)O)NC(=O)[C@@H](CNC(=O)c1ccc([Si](F)(C(C)(C)C)C(C)(C)C)cc1)NC(=O)CCC(C(=O)O)N1CCN(CC(=O)O)CCN(CC(=O)O)CCN(CC(=O)O)CC1)C(=O)N[C@@H](CC(=O)O)C(=O)N[C@@H](Cc1ccccc1)C(N)=O (some centres unmarked) [DOTAGA-MG-SiFA-11, DOTAGA-dap(SiFA)-F11N] ({DOTAGA}-[dDap](Benzoyl(4-SiFtBu2))[dE][dE][dE][dE][dE][dE]AYGW[Nle]DF-NH2) | – | −2.63 ± 0.08 | 75.7 ± 10.7 |
| CCCC[C@H](NC(=O)[C@H](Cc1c[nH]c2ccccc12)NC(=O)CNC(=O)[C@H](Cc1ccc(O)cc1)NC(=O)[C@H](C)NC(=O)CC[C@@H](NC(=O)CC[C@@H](NC(=O)CC[C@@H](NC(=O)CC[C@@H](NC(=O)CC[C@@H](NC(=O)CC[C@@H](NC(=O)CC[C@@H](NC(=O)CCCNC(=O)[C@@H](CNC(=O)c1ccc([Si](F)(C(C)(C)C)C(C)(C)C)cc1)NC(=O)CN1CCN(CC(=O)O)CCN(CC(=O)O)CCN(CC(=O)O)CC1)C(=O)O)C(=O)O)C(=O)O)C(=O)O)C(=O)O)C(=O)O)C(=O)O)C(=O)N[C@@H](CC(=O)O)C(=O)N[C@@H](Cc1ccccc1)C(N)=O [DOTA-MG-SiFA-44, DOTA(-dap(SiFA)-GABA-(γ-glu)7-F11N] | – | −2.01 ± 0.07 | 3.47 ± 0.27 |
| CCCC[C@@H](C(=O)N[C@@H](CC(=O)O)C(=O)N[C@@H](Cc1cccc2ccccc12)C(N)=O)N(C)C(=O)[C@H](Cc1c[nH]c2ccccc12)NC(=O)CNC(=O)[C@H](Cc1ccc(O)cc1)NC(=O)CNC(=O)CC[C@@H](NC(=O)CN1CCN(CC(=O)O)CCN(CC(=O)O)CCN(CC(=O)O)CC1)C(=O)O [DOTA-CCK-59, DOTA-γ-glu-Gly-Tyr-Gly-Trp-(N-Me)Nle-Asp-1-Nal-NH2] ({DOTA-d(γGlu)}-GYGW[NMeNle]D[1Nal]-NH2) | 4.2 ± 0.5 | −2.63 ± 0.05 | – |
| CCCC[C@H](NC(=O)[C@H](Cc1c[nH]c2ccccc12)NC(=O)CNC(=O)[C@H](Cc1ccc(O)cc1)NC(=O)[C@H](C)NC(=O)CC[C@@H](NC(=O)[C@@H](CNC(=O)c1ccc([Si](F)(C(C)(C)C)C(C)(C)C)cc1)NC(=O)CC[C@@H](NC(=O)CC[C@@H](NC(=O)CC[C@@H](NC(=O)CC[C@@H](NC(=O)CC[C@@H](NC(=O)CC[C@H](C(=O)O)N1CCN(CC(=O)O)CCN(CC(=O)O)CCN(CC(=O)O)CC1)C(=O)O)C(=O)O)C(=O)O)C(=O)O)C(=O)O)C(=O)O)C(=O)N[C@@H](CC(=O)O)C(=O)N[C@@H](Cc1ccccc1)C(N)=O [DOTAGA-MG-SiFA-14, DOTAGA-γ-glu-[dap(SiFA)^5]γ-F11N] ({X2-d(γGlu)-d(γGlu)-d(γGlu)-d(γGlu)-d(γGlu)}-[dDap](Benzoyl(4-SiFtBu2))[d(γGlu)]AYGW[Nle]DF-NH2) | 111 ± 13 | −2.23 ± 0.07 | – |
| CCCC[C@H](NC(=O)[C@H](Cc1c[nH]c2ccccc12)NC(=O)CNC(=O)[C@H](Cc1ccc(O)cc1)NC(=O)[C@H](C)NC(=O)[C@@H](CNC(=O)c1ccc([Si](F)(C(C)(C)C)C(C)(C)C)cc1)NC(=O)CC[C@@H](NC(=O)CC[C@@H](NC(=O)CC[C@@H](NC(=O)CC[C@@H](NC(=O)CC[C@@H](NC(=O)CC[C@@H](NC(=O)CC[C@H](C(=O)O)N1CCN(CC(=O)O)CCN(CC(=O)O)CCN(CC(=O)O)CC1)C(=O)O)C(=O)O)C(=O)O)C(=O)O)C(=O)O)C(=O)O)C(=O)N[C@@H](CC(=O)O)C(=O)N[C@@H](Cc1ccccc1)C(N)=O [DOTAGA-MG-SiFA-13, DOTAGA-γ-glu-[dap(SiFA)^6]γ-F11N] ({X2-d(γGlu)-d(γGlu)-d(γGlu)-d(γGlu)-d(γGlu)-d(γGlu)}-[dDap](Benzoyl(4-SiFtBu2))AYGW[Nle]DF-NH2) | 863 ± 147 | −2.15 ± 0.08 | – |
| CCCC[C@H](NC(=O)[C@H](Cc1c[nH]c2ccccc12)NC(=O)CNC(=O)[C@H](Cc1ccc(O)cc1)NC(=O)[C@H](C)NC(=O)CC[C@@H](NC(=O)CC[C@@H](NC(=O)CC[C@@H](NC(=O)[C@@H](CNC(=O)c1ccc([Si](F)(C(C)(C)C)C(C)(C)C)cc1)NC(=O)CC[C@@H](NC(=O)CC[C@@H](NC(=O)CC[C@@H](NC(=O)CC[C@H](C(=O)O)N1CCN(CC(=O)O)CCN(CC(=O)O)CCN(CC(=O)O)CC1)C(=O)O)C(=O)O)C(=O)O)C(=O)O)C(=O)O)C(=O)O)C(=O)N[C@@H](CC(=O)O)C(=O)N[C@@H](Cc1ccccc1)C(N)=O [DOTAGA-MG-SiFA-16, DOTAGA-γ-glu-[dap(SiFA)^3]γ-F11N] ({X2-d(γGlu)-d(γGlu)-d(γGlu)}-[dDap](Benzoyl(4-SiFtBu2))[d(γGlu)][d(γGlu)][d(γGlu)]AYGW[Nle]DF-NH2) | 68.5 ± 11.4 | −2.57 ± 0.06 | – |
